Laboratory results reported in patent US20140039007A1, “COMPOSITIONS AND METHODS FOR MODULATING FARNESOID X RECEPTORS” (priority 2010, published 2014).

Molecular target: T1, human GST-FXR LBD (Homo sapiens, UniProt Q96RI1)
T1 construct: purchased Invitrogen
T1 sequence (Q96RI1 193-472 isoform Q96RI1-2): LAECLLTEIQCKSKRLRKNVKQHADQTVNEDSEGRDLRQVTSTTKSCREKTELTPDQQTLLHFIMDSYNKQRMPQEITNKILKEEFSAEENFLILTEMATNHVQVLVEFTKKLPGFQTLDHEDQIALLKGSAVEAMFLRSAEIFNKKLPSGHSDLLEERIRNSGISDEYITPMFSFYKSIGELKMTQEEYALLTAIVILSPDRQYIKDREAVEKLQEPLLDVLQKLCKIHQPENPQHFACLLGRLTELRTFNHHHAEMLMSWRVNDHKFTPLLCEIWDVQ
Assay: Human GST-FXR LBD Co-activator interaction Assay (FXR HTRF assay)
Assay type: biochemical
Conditions: GST-FXR LBD / biotin-labeled SRC-1 peptide, response relative to GW4064
Description: Human GST-FXR LBD Co-activator interaction Assay.
The FXR HTRF assay is a biochemical assay measuring the interaction between FXR and a coactivator protein (SRC1). The ligand-induced interaction with a coactivator protein is a critical step in transcriptional activation by FXR. Thus, this is an assay designed to measure FXR agonist activity of compounds.
Recombinant human Farnesoid X Receptor (FXR) ligand binding domain (amino acids 193-472) fused to glutathione S-transferase (GST) purified protein (GST-FXR LBD) was purchased (Invitrogen). The ligand-dependent interaction between GST-FXR LBD and a peptide derived from Steroid Receptor Coactivator-1 (SRC-1) was monitored by Fluorescence Resonance Energy Transfer (FRET). GST-FXR LBD was mixed with a biotin-labeled SRC-1 peptide (Sequence: Biotin-[…]-SPS-CONH2, American Peptide) in assay buffer (50 mM Tris HCl, pH 7.4, 50 mM NaCl, 1 mM TCEP and 0.2% bovine serum albumen) and plated in 384 black Proxi plates (Greiner Bio-One). Test compounds (in DMSO solution) and detection reagents (anti-GST-Cryptate labeled antibody and Streptavidin-XL665 conjugate; CisBio) were added in assay buffer containing 50 mM KF. Plates are incubated at room temperature in the dark for 2.5 hours before reading on an Envision (PerkinElmer) at 665 nm and 590 nm. The HTRF assay results were calculated from the 665 nm/590 nm ratio (ratio=(A665 nm/A590 nm)×10^4) and expressed in Delta F %=(Ratiosample−Rationegative)/Rationegative×100.
A negative control (without Streptavidin-XL665) was run with each assay and represented the background fluorescence. A reference FXR agonist, GW4064, was included in each experiment as positive control. The efficacy of each test compound was compared to that of GW4064. At each concentration, the relative activity of the test compound was expressed as Response %=(Rsample−RDMSO)/(Rpositive−RDMSO), where Rsample is the HTRF response, (expressed in Delta F %) for the test compound, Rpositive is the maximal response for GW4064 at saturating concentrations, and RDMSO is the response for DMSO control. The EC50 values were calculated using GraphPad Prism (GraphPad Software) using non-linear regression curve fit (log(agonist) vs. response−variable slope (four parameters)).

SMILES | EC50
O=C(O)c1ccc(-c2nc(N3CCC(OCc4c(-c5ccccc5OC(F)(F)F)noc4C4CC4)CC3)no2)cc1 [Example 1B, 4-(3-(4-((5-cyclopropyl-3-(2-(trifluoromethoxy)phenyl)isoxazol-4-yl)methoxy)piperidin-1-yl)-1,2,4-oxadiazol-5-yl)benzoic acid] | 90 nM
O=C(O)c1cccc(-c2nc(N3CCC(OCc4c(-c5ccccc5OC(F)(F)F)noc4C4CC4)CC3)no2)c1 [Example 2B, 3-{3-[4-({5-cyclopropyl-3-[2-(trifluoromethoxy)phenyl]-1,2-oxazol-4-yl}methoxy)piperidin-1-yl]-1,2,4-oxadiazol-5-yl}benzoic acid] | 128 nM
COC(=O)c1ccc(-c2nc(N3CCC(OCc4c(-c5ccccc5OC(F)(F)F)noc4C4CC4)CC3)no2)s1 [Example 3A, methyl 5-{3-[4-({5-cyclopropyl-3-[2-(trifluoromethoxy)phenyl]-1,2-oxazol-4-yl}methoxy)piperidin-1-yl]-1,2,4-oxadiazol-5-yl}thiophene-2-carboxylate] | 946 nM
O=C(O)c1ccc(-c2nc(N3CCC(OCc4c(-c5ccccc5OC(F)(F)F)noc4C4CC4)CC3)no2)s1 [Example 3B, 5-{3-[4-({5-cyclopropyl-3-[2-(trifluoromethoxy)phenyl]-1,2-oxazol-4-yl}methoxy)piperidin-1-yl]-1,2,4-oxadiazol-5-yl}thiophene-2-carboxylic acid] | 275 nM
COC(=O)c1ccc(-c2nc(N3CCC(OCc4c(-c5c(Cl)cccc5Cl)noc4C4CC4)CC3)no2)cc1 [Example 4A] | 812 nM
COC(=O)C1CCC(c2nc(N3CCC(OCc4c(-c5c(Cl)cccc5Cl)noc4C4CC4)CC3)no2)C1 (stereo not shown) [Example 7A, methyl-3-[3-(4-{[5-cyclopropyl-3-(2,6-dichlorophenyl)-1,2-oxazol-4-yl]methoxy}piperidin-1-yl)-1,2,4-oxadiazol-5-yl]cyclopentane-1-carboxylate] | 1590 nM
COC(=O)c1cccc(-c2nc(N3CCC(OCc4c(-c5c(Cl)cccc5Cl)noc4C4CC4)CC3)no2)n1 [Example 9A, methyl 6-[3-(4-{[5-cyclopropyl-3-(2,6-dichlorophenyl)-1,2-oxazol-4-yl]methoxy}piperidin-1-yl)-1,2,4-oxadiazol-5-yl]pyridine-2-carboxylate] | 463 nM
O=C(O)c1cccc(-c2nc(N3CCC(OCc4c(-c5c(Cl)cccc5Cl)noc4C4CC4)CC3)no2)n1 [Example 9B, 6-[3-(4-{[5-cyclopropyl-3-(2,6-dichlorophenyl)-1,2-oxazol-4-yl]methoxy}piperidin-1-yl)-1,2,4-oxadiazol-5-yl]pyridine-2-carboxylic acid] | 128 nM
O=C(O)c1ccc(-c2nc(N3CCC(OCc4c(-c5c(F)cccc5F)noc4C4CC4)CC3)no2)cc1 [Example 10, 4-[3-(4-{[5-cyclopropyl-3-(2,6-difluorophenyl)-1,2-oxazol-4-yl]methoxy}piperidin-1-yl)-1,2,4-oxadiazol-5-yl]benzoic acid] | 934 nM

More lines, in order of falling EC50, values ahead:

EC50 | SMILES
2950 nM | COC(=O)c1ccc(-c2nc(N3CCC(OCc4c(-c5c(Cl)cccc5Cl)noc4C4CC4)CC3)no2)s1 [Example 8A, methyl 5-[3-(4-{[5-cyclopropyl-3-(2,6-dichlorophenyl)-1,2-oxazol-4-yl]methoxy}piperidin-1-yl)-1,2,4-oxadiazol-5-yl]thiophene-2-carboxylate]
2380 nM | COC(=O)c1ccc(-c2nc(N3CCC(OCc4c(-c5ccccc5OC(F)(F)F)noc4C4CC4)CC3)no2)cc1 [Example 1A, Methyl 4-(3-(4-((5-cyclopropyl-3-(2-(trifluoromethoxy)phenyl)isoxazol-4-yl)methoxy)piperidin-1-yl)-1,2,4-oxadiazol-5-yl)benzoate]
2020 nM | COC(=O)c1cccc(-c2nc(N3CCC(OCc4c(-c5ccccc5OC(F)(F)F)noc4C4CC4)CC3)no2)c1 [Example 2A, methyl 3-{3-[4-({5-cyclopropyl-3-[2-(trifluoromethoxy)phenyl]-1,2-oxazol-4-yl}methoxy)piperidin-1-yl]-1,2,4-oxadiazol-5-yl}benzoate]
1620 nM | COC(=O)C1CCC(c2nc(N3CCC(OCc4c(-c5c(Cl)cccc5Cl)noc4C4CC4)CC3)no2)CC1 (stereo not shown) [Example 6A, methyl 4-[3-(4-{[5-cyclopropyl-3-(2,6-dichlorophenyl)-1,2-oxazol-4-yl]methoxy}piperidin-1-yl)-1,2,4-oxadiazol-5-yl]cyclohexane-1-carboxylate]
1560 nM | O=C(O)C1CCC(c2nc(N3CCC(OCc4c(-c5c(Cl)cccc5Cl)noc4C4CC4)CC3)no2)C1 (stereo not shown) [Example 7B, 3-[3-(4-{[5-cyclopropyl-3-(2,6-dichlorophenyl)-1,2-oxazol-4-yl]methoxy}piperidin-1-yl)-1,2,4-oxadiazol-5-yl]cyclopentane-1-carboxylic acid]
823 nM | O=C(O)C1CCC(c2nc(N3CCC(OCc4c(-c5c(Cl)cccc5Cl)noc4C4CC4)CC3)no2)CC1 (stereo not shown) [Example 6B, 4-[3-(4-{[5-cyclopropyl-3-(2,6-dichlorophenyl)-1,2-oxazol-4-yl]methoxy}piperidin-1-yl)-1,2,4-oxadiazol-5-yl]cyclohexane-1-carboxylic acid]
587 nM | O=C(O)c1ccc(-c2nc(N3CCC(OCc4c(-c5ccccc5C(F)(F)F)noc4C4CC4)CC3)no2)cc1 [Example 11, 4-{3-[4-({5-cyclopropyl-3-[2-(trifluoromethyl)phenyl]-1,2-oxazol-4-yl}methoxy)piperidin-1-yl]-1,2,4-oxadiazol-5-yl}benzoic acid]
114 nM | O=C(O)c1ccc(-c2nc(N3CCC(OCc4c(-c5c(Cl)cccc5Cl)noc4C4CC4)CC3)no2)cc1 [Example 4B]
105 nM | O=C(O)c1ccc(-c2nc(N3CCC(OCc4c(-c5c(Cl)cccc5Cl)noc4C4CC4)CC3)no2)s1 [Example 8B, 5-[3-(4-{[5-cyclopropyl-3-(2,6-dichlorophenyl)-1,2-oxazol-4-yl]methoxy}piperidin-1-yl)-1,2,4-oxadiazol-5-yl]thiophene-2-carboxylic acid]
60 nM | O=C(O)c1cccc(-c2nc(N3CCC(OCc4c(-c5c(Cl)cccc5Cl)noc4C4CC4)CC3)no2)c1 [Example 5B, 3-[3-(4-{[5-cyclopropyl-3-(2,6-dichlorophenyl)-1,2-oxazol-4-yl]methoxy}piperidin-1-yl)-1,2,4-oxadiazol-5-yl]benzoic acid]
